Measured values published in patent US12448389B2, “BRM targeting compounds and associated methods of use” (Prelude Therapeutics Incorporated, priority 2020, dated 2025).

What was measured:
Assay type in all cases: cell-based
[1] = biological target: T1, SMARCA2 (Homo sapiens, UniProt P51531); test: SMARCA2 protein degradation in NCIH520 cells by In Cell Western (ICW); conditions: highest concentration 1 μM; for DC50: H520 cells, overnight incubation (maximum 18 hours), read-out: DC50 (SM2_H520): SMARCA2 degradation potency; for Dmax: NCI-H520, overnight incubation (maximum 18 hours), read-out: Dmax % (SM2_H520): maximum SMARCA2 degradation within the concentrations tested
T1 construct: endogenous in cells; host or cells: NCI-H520 (given as NCIH520 / NCIH1520 / H520)
Method: (§1) Compounds were dissolved in DMSO to make 10 mM stock and 3-fold series dilutions were further conducted keeping the highest concentration 10 μM. NCIH11693 and NCIH1520 cells were maintained in PRMI 1640 medium (Corning Cellgro, Catalog #: 10-040-CV) supplemented with 10% v/v FBS (GE Healthcare, Catalog #: SH30910.03) by splitting 1:3 twice a week.
(§2) SMACRA2 and SMARCA4 Protein Degradation DC50 Values in NCIH1693 and NCIH520 Cells by in Cell Western (ICW) Analysis.
(§3) Cells were trypsinized and 30 thousand cells/well were seeded into 384-well plates and were allowed to grow for 1-2 hours at 37° C. Eight-point, 3-fold serial dilutions of compounds from 0.5 mM stocks were added to the cells (using digital Dispenser D300-Tecan, keeping highest concentration 1 μM and normalizing with DMSO at the highest dispensed volume). Plates were incubated at 37° C. for overnight (maximum 18 hours). Cells incubated with DMSO was used as a vehicle control.
(§4) To perform In Cell Western, medium was removed from all the wells leaving cells attached to the surface. After removing the medium, cells were fixed within the plates with 40 μL of 4% formaldehyde by incubating at room temperature for 30 minutes, and then permeabilized with wash buffer (1×PBS with 0.1% Triton X-100) by washing the plate 5 times with 50 μL/well. Before labeling with primary antibodies, cells were blocked with 30 μL/well of blocking buffer (Licor Odyssey blocking buffer PBS #927-40000) for 30 minutes at room temperature. To measure SMARCA2 or SMARCA4 proteins, cells were labeled with 20 μL/well of anti SMARCA2 or SMACRA4 antibodies (Cell Signaling BRM #11966S 1:800, Cell Signaling BRG #49360S 1:800) diluted in Li-Cor Odyssey blocking buffer-PBS #927-40000, followed by overnight incubation at 4° C.
(§5) The next day, plates were washed 5×5 minutes with 50 μL/well of washing buffer to remove all the excess primary antibody and then 20 μL from a mixture of secondary antibody and fluorescent DNA specific dye (Goat anti rabbit 1:500 IRDye-800CW #92632211, and DRAQ5™ 1:2000-#ab108410) was added to each well. Plates were incubated for 1 hour at room temperature with gentle rocking. Cells were washed 5 times with 50 μL/well wash buffer, followed by one last wash with DI water, followed by 10 mins drying at 37° C. oven before scanning. Plates were scanned using Li-Cor Odyssey CLx imaging system to acquire integrated intensities at 700 nm and 800 nm. SMARCA signals were normalized to total cell count and then these normalized values were used to calculate the percent degradation relative to DMSO control and maximum inhibition. DC50s were calculated by using the GraphPad Prism4 program based on sigmoidal dose response equation ([Inhibitor] vs. normalized response-Variable slope).
(§6) In Table 36, the DC50/Dmax% (SM2_H520) refers to SMARCA2 degradation potency/maximum SMARCA2 degradation within the concentrations in H520 cells and DC50/Dmax% (SM4_H520) refers to SMARCA4 degradation potency/maximum SMARCA4 degradation within the concentrations tested in H520 cells.

[2] = biological target: T2, SMARCA4 (Homo sapiens, UniProt P51532); test: SMARCA4 protein degradation in NCIH520 cells by In Cell Western (ICW); conditions: highest concentration 1 μM; for DC50: H520 cells, overnight incubation (maximum 18 hours), read-out: DC50 (SM4_H520): SMARCA4 degradation potency; for Dmax: NCI-H520, overnight incubation (maximum 18 hours), read-out: Dmax % (SM4_H520): maximum SMARCA4 degradation within the concentrations tested
T2 construct: endogenous in cells; host or cells: NCI-H520 (given as NCIH520 / NCIH1520 / H520)
Method: as §1, §2, §3, §4, §5, §6

[3] = biological target: T3, SMARCA2-HiBiT (Homo sapiens, UniProt P51531); test: SMARCA2 HiBiT degradation assay in HeLa cells; conditions: 18 hours incubation; for DC50: read-out: HeLa_HiBit-SM2 DC50; for Dmax: HeLa, read-out: HeLa-HiBit-SM2 Dmax (%)
T3 construct: SMARCA2-HiBiT knock-in Hela monoclonal cell (CS302366); host or cells: HeLa monoclonal knock-in line (CRISPR HiBiT knock-in at the endogenous locus, heterozygous)
Summary of the method: (§7)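 HeLa monoclonal lines with heterozygous HiBiT knock-in were seeded at 2500 cells/well in EMEM with 10% FBS and treated with compound for 18 h at 37 °C. Remaining tagged protein was measured by Nano-Glo HiBiT lytic luminescence after 30–60 min at RT, and values came from curve fitting.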

[4] = biological target: T4, SMARCA4-HiBiT (Homo sapiens, UniProt P51532); test: SMARCA4 HiBiT degradation assay in HeLa cells; conditions: 18 hours incubation; for DC50: read-out: HeLa-HiBit-SM4 DC50; for Dmax: HeLa, read-out: HeLa-HiBit-SM4 Dmax (%)
T4 construct: SMARCA4-HiBiT knock-in Hela monoclonal cell (CS3023226); host or cells: HeLa monoclonal knock-in line (CRISPR HiBiT knock-in at the endogenous locus, heterozygous)
Summary of the method: as §7

T2 sequence (P51532 whole entry): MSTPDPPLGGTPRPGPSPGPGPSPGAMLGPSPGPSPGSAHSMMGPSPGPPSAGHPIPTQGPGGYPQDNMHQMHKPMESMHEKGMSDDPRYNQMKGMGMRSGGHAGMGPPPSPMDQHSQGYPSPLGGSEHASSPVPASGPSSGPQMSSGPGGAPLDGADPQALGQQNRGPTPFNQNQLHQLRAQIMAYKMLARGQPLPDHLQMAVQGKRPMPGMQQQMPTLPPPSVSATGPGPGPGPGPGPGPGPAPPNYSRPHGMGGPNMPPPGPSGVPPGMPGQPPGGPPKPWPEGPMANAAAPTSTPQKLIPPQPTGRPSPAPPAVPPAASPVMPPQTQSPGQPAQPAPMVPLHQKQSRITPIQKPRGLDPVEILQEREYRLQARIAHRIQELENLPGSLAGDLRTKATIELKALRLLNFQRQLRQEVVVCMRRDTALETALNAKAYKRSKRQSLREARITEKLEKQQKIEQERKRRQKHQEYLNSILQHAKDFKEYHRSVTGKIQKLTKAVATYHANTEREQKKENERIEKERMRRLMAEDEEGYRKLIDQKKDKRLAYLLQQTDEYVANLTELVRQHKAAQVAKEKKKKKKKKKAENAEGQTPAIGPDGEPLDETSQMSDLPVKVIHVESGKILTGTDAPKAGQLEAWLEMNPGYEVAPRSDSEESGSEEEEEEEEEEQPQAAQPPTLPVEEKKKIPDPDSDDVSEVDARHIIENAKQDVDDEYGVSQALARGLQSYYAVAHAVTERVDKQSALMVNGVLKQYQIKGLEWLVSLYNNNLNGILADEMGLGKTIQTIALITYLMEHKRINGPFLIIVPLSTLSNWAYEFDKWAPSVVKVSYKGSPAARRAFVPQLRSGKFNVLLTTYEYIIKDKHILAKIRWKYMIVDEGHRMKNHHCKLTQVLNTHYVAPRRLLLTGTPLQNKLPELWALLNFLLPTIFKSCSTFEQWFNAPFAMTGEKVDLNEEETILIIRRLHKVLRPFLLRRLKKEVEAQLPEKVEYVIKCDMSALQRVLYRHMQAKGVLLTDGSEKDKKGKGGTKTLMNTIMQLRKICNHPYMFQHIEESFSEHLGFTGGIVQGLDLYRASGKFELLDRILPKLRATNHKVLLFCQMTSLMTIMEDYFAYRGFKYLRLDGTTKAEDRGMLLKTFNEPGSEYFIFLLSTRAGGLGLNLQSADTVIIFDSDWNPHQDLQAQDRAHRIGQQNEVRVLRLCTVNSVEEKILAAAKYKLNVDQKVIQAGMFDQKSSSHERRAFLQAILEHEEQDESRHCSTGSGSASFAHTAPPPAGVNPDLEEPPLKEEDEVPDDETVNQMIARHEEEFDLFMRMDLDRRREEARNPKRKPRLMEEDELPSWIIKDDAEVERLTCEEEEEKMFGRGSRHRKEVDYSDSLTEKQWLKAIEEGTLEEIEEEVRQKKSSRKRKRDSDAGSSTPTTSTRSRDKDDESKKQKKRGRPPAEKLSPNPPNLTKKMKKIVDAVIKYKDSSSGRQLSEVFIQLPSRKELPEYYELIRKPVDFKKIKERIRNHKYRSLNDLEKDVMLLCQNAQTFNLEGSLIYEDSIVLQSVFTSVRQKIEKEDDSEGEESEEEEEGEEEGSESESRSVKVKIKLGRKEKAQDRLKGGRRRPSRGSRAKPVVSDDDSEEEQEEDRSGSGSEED
T4 sequence (P51532 whole entry): as above
T1 sequence (P51531 whole entry): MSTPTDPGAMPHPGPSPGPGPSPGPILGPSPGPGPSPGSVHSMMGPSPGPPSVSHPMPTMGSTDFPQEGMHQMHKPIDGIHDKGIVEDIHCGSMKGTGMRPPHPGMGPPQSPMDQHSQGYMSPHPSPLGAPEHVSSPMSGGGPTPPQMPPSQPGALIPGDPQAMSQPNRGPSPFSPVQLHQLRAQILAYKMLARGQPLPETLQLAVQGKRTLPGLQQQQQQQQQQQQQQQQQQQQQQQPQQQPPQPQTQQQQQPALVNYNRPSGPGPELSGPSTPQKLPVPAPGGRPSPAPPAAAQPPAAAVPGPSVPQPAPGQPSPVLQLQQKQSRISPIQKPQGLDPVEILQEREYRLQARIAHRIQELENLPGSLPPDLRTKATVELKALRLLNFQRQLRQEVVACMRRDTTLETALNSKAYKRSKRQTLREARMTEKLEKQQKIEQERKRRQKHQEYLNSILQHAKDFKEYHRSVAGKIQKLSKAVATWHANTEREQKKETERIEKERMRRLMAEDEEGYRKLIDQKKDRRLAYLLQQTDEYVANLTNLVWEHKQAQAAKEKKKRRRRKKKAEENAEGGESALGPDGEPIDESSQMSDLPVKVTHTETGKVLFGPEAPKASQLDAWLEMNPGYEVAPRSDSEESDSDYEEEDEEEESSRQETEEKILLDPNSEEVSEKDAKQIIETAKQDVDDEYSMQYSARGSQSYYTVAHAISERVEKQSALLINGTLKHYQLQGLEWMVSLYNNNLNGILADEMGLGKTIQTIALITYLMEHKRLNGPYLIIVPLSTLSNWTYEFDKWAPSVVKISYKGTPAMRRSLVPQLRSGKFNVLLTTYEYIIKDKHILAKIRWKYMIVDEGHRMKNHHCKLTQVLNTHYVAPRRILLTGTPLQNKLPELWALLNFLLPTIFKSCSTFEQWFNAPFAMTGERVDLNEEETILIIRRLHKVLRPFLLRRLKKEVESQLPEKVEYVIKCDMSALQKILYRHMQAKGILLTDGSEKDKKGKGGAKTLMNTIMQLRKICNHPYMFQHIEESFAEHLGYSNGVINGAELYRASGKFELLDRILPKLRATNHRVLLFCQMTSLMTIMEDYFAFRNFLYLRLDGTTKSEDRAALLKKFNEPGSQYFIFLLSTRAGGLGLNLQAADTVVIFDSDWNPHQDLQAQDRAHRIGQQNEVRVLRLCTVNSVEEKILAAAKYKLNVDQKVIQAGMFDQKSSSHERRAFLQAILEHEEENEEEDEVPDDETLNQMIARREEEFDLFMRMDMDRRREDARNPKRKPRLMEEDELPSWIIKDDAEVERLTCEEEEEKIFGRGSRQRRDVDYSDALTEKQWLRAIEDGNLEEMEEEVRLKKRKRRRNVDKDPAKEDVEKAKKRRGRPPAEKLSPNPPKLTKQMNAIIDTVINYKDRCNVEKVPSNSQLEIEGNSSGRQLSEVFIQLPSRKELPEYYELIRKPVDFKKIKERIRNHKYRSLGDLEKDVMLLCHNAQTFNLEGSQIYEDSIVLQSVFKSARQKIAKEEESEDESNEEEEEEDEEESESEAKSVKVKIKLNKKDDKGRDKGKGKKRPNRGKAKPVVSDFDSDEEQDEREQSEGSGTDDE
T3 sequence (P51531 whole entry): as above

DC50 [1] | Dmax [1] | DC50 [2] | Dmax [2] | DC50 [3] | Dmax [3] | DC50 [4] | Dmax [4] | Structure (SMILES)
< 0.1 µM | > 75% | < 0.1 µM | 50 to 75% | – | – | – | – | O=C1CCC(N2C(=O)c3ccc(N4CCC(OCCN5CCC(N6CCN7c8cc(-c9ccccc9O)nnc8NC[C@H]7C6)CC5)CC4)cc3C2=O)C(=O)N1 (stereo partly drawn) [Example 16, 2-(2,6-Dioxopiperidin-3-yl)-5-(4-(2-(4-((S)-2-(2-hydroxyphenyl)-5,6,6a,7,9,10-hexahydro-8H-pyrazino[1′,2′:4,5]pyrazino[2,3-c]pyridazin-8-yl)piperidin-1-yl)ethoxy)piperidin-1-yl) isoindoline-1,3-dione]
< 0.1 µM | > 75% | < 0.1 µM | > 75% | – | – | – | – | O=C1CCC(N2Cc3cc(CCCN4CCC(c5cnc(N6CCN7c8cc(-c9ccccc9O)nnc8NC[C@@H]7C6)nc5)CC4)ccc3C2=O)C(=O)N1 (stereo partly drawn) [Example 2, 3-(5-(3-(4-(2-((R)-2-(2-hydroxyphenyl)-5,6,6a,7,9,10-hexahydro-8H-pyrazino[1′,2′:4,5]pyrazino[2,3-c]pyridazin-8-yl)pyrimidin-5-yl)piperidin-1-yl)propyl)-1-oxoisoindolin-2-yl)piperidine-2,6-dione]
< 0.1 µM | 50 to 75% | – | – | – | – | – | – | O=C1CCC(N2C(=O)c3ccc(N4CCC(OCCN5CCC(N6CCN7c8cc(-c9ccccc9O)nnc8NC[C@H]7C6)C5)CC4)cc3C2=O)C(=O)N1 (stereo partly drawn) [Example 15, 2-(2,6-Dioxopiperidin-3-yl)-5-(4-(2-(3-((S)-2-(2-hydroxyphenyl)-5,6,6a,7,9,10-hexahydro-8H-pyrazino[1′,2′:4,5]pyrazino[2,3-c]pyridazin-8-yl)pyrrolidin-1-yl)ethoxy)piperidin-1-yl) isoindoline-1,3-dione]
< 0.1 µM | > 75% | – | – | – | – | – | – | O=C1CCC(n2c3ccc(CCCN4CCC(c5cnc(O[C@H]6C[C@@H]7CNc8nnc(-c9ccccc9O)cc8N7C6)nc5)CC4)cc3c3cccnc32)C(=O)N1 (stereo partly drawn) [Example 23, 3-(6-(3-(4-(2-(((6aR,8S)-2-(2-hydroxyphenyl)-5,6,6a,7,8,9-hexahydro-pyrrolo[1′,2′:4,5]pyrazino[2,3-c]pyridazin-8-yl)oxy)pyrimidin-5-yl)piperidin-1-yl)propyl)-9H-pyrido[2,3-b]indol-9-yl)piperidine-2,6-dione]
– | – | – | – | < 0.01 µM | 75 to 85% | 0.01 to 0.1 µM | 50 to 75% | O=C1CCC(N2C(=O)c3ccc(N4CCC(NC5CCN(C(=O)N6CCN7c8cc(-c9ccccc9O)nnc8NC[C@H]7C6)CC5)CC4)cc3C2=O)C(=O)N1 (stereo partly drawn) [Example 141, 2-(2,6-dioxopiperidin-3-yl)-5-(4-((1-((S)-2-(2-hydroxyphenyl)-6,6a,7,8,9,10-hexahydro-5H-pyrazino[1′,2′:4,5]pyrazino[2,3-c]pyridazine-8-carbonyl)piperidin-4-yl)amino)piperidin-1-yl)isoindoline-1,3-dione]
– | – | – | – | < 0.01 µM | > 85% | < 0.01 µM | > 85% | O=C1CCC(N2C(=O)c3ccc(N4CCC5(CC4)CC(N4C[C@@H]6[C@@H](CN7CCN8c9cc(-c%10ccccc%10O)nnc9NC[C@H]8C7)[C@@H]6C4)C5)cc3C2=O)C(=O)N1 (stereo partly drawn) [Example 93, 2-(2,6-dioxopiperidin-3-yl)-5-(2-((1R,5S,6s)-6-(((S)-2-(2-hydroxyphenyl)-5,6,6a,7,9,10-hexahydro-8H-pyrazino[1′,2′:4,5]pyrazino[2,3-c]pyridazin-8-yl)methyl)-3-azabicyclo[3.1.0]hexan-3-yl)-7-azaspiro[3.5]nonan-7-yl)isoindoline-1,3-dione]
– | – | – | – | < 0.01 µM | > 85% | 0.01 to 0.1 µM | 75 to 85% | O=C1CCC(N2Cc3ccc(N4CC(CN5CCN(C(=O)N6CCN7c8cc(-c9ccccc9O)nnc8NC[C@H]7C6)CC5)C4)cc3C2=O)C(=O)N1 (stereo partly drawn) [Example 107, 3-(6-(3-((4-((S)-2-(2-hydroxyphenyl)-6,6a,7,8,9,10-hexahydro-5H-pyrazino[1′,2′:4,5]pyrazino[2,3-c]pyridazine-8-carbonyl)piperazin-1-yl)methyl)azetidin-1-yl)-1-oxoisoindolin-2-yl)piperidine-2,6-dione]
– | – | – | – | < 0.01 µM | > 85% | < 0.01 µM | 75 to 85% | O=C1CCC(N2C(=O)c3cc(F)c(N4CCC(CN5CCC(CN6CCN7c8cc(-c9ccccc9O)nnc8NC[C@H]7C6)CC5)CC4)cc3C2=O)C(=O)N1 (stereo partly drawn) [Example 164, 2-(2,6-dioxopiperidin-3-yl)-5-fluoro-6-[4-[[4-[[(10S)-4-(2-hydroxyphenyl)-1,5,6,8,12-pentazatricyclo[8.4.0.02,7]tetradeca-2,4,6-trien-12-yl]methyl]piperidin-1-yl]methyl]piperidin-1-yl]isoindole-1,3-dione]
– | – | – | – | < 0.01 µM | ≤ 50% | < 0.01 µM | ≤ 50% | O=C1CCC(N2C(=O)c3ccc(N4CCC(CN5CCc6cnc(N7CCN8c9cc(-c%10ccccc%10O)nnc9NC[C@H]8C7)nc6C5)CC4)cc3C2=O)C(=O)N1 (stereo partly drawn) [Example 60, 2-(2,6-dioxopiperidin-3-yl)-5-(4-((2-((S)-2-(2-hydroxyphenyl)-5,6,6a,7,9,10-hexahydro-8H-pyrazino[1′,2′:4,5]pyrazino[2,3-c]pyridazin-8-yl)-5,8-dihydropyrido[3,4-d]pyrimidin-7(6H)-yl)methyl)piperidin-1-yl) isoindoline-1,3-dione]
– | – | – | – | < 0.01 µM | > 85% | < 0.01 µM | 75 to 85% | CC1CC(N2CCN3c4cc(-c5ccccc5O)nnc4NC[C@H]3C2)CCN1CCCC1CCN(c2cccc3c2C(=O)N(C2CCC(=O)NC2=O)C3=O)CC1 (stereo partly drawn) [Example 126, 2-(2,6-dioxopiperidin-3-yl)-4-(4-(3-(4-((S)-2-(2-hydroxyphenyl)-5,6,6a,7,9,10-hexahydro-8H-pyrazino[1′,2′:4,5]pyrazino[2,3-c]pyridazin-8-yl)-2-methylpiperidin-1-yl)propyl)piperidin-1-yl)isoindoline-1,3-dione]
– | – | – | – | < 0.01 µM | > 85% | < 0.01 µM | 75 to 85% | O=C1CCC(N2Cc3ccc(N4CCC(CN5CCC(OC(=O)N6CCN7c8cc(-c9ccccc9O)nnc8NC[C@H]7C6)CC5)CC4)cc3C2=O)C(=O)N1 (stereo partly drawn) [Example 85, l-((l-(2-(2,6-dioxopiperidin-3-yl)-3-oxoisoindolin-5-yl)piperidin-4-yl)methyl)piperidin-4-yl (6aS)-2-(2-hydroxyphenyl)-5,6,6a,7,9,10-hexahydro-8H-pyrazino[1′,2′:4,5]pyrazino[2,3-c]pyridazine-8-carboxylate]
